Legend:
[1] = system: dopaminergic neuronal cell line; test: High glutamate-induced oxidative stress assay (HGOS); assay type: cell-based; conditions: Mus musculus; 30 mM glutamate, 16 hrs; read-out: EC50, protection against HGOS cell injury and cell death
From the text: Protection against redox stress can be further evaluated in cell culture using high glutamate induced oxidative stress (HGOS) in mouse dopaminergic cell lines. The cytotoxic effect of glutamate is not due to excitotoxicity, as this cell line is devoid of inotropic glutamate receptors. Rather, the glutamate-induced toxicity of dopaminergic cells is associated with an inhibition of cystine transport which subsequently leads to depletion of intracellular glutathione (GSH) levels (Murphy T. H., et al. Neuron 2, 1547-1558, 1989), activation of neuronal 12-lipoxygenase (Li, Y. et al., Neuron 19, 453-463, 1997), increased ROS production (Tan S. et al., J. Cell Biol. 141, 1423-1432, 1998) and elevated intracellular Ca^2+ (Li, Y. et al., see supra). Some molecules were measured for their ability to protect cells against glutamate-induced stress and the assay is detailed in Examples.
This procedure was used to induce high glutamate-induced oxidative stress (HGOS) in a dopaminergic neuronal cell line. Using this assay the potency and efficacy of test articles against HGOS neuronal cell injury and cell death was established in a high throughput manner.
The cells were seeded into 96-well plates at a density of 2000 per well and left to grow for 72 hours in a 33° C. incubator with 5% CO2 in air atmosphere. The passage number of the cells for each assay experiment were no later than p11 in order to minimize experimental variation.
All compounds were dissolved in DMEM-No Glu containing 1 mM glucose, 30 mM glutamate and 1×Pen/Strep. DMEM-No Glu with 1 mM glucose and 1×P/S was used as the negative control, DMEM-No Glucose with 1 mM glucose, […] was used as a positive control and 100 μM Glutathione was added to the positive control as a standard. All of the procedures for this involving the making and dilution of compounds were performed using aseptic conditions and with minimal light.
The plates were removed from the incubator and examined under the microscope for morphological appearance and density. Using an aseptic technique and an 8-channel aspirator the media was carefully removed from the cells and replaced with 200 μl of 1×HBSS. This was done as quickly as possible to prevent the cells drying out. The plates were then placed in the humidified 37° C. incubators of the Biomek 2000 Side Loader. Four plates were washed at a time so as to minimize the time that the cells were sitting in 1×HBSS prior to addition of the compound test solution.
The Beckman Biomek workstations were used to load the compounds and controls from the mother plates onto the cell plates that were prewashed with HBSS under sterile conditions. The plates were incubated in the upper HTS incubator at 37° C. in 5% CO2 for exactly 16 hrs. The following day, using the Beckman Biomek workstations, the plates were removed from the incubator. Using Cell Tracker Addition, the compounds were removed from the plates, washed once with […] of pre-warmed 1×HBSS and then 100 μL of 5 μM Cell Tracker Green was added to each well. The plates were incubated at 37° C. for 30 min to allow the dye to enter the cell and be cleaved by the esterases. After washing the cells twice with prewarmed 1×HBSS, the plates were read with the 485 excitation; 538 emission filter pair on a Fluoroskan.

[2] = target: T1, human recombinant 5-lipoxygenase (Homo sapiens, UniProt P09917); test: 5-Lipoxygenase enzyme assay; assay type: biochemical; conditions: 70 μM arachidonic acid, pH 7.4
T1 construct: purchased Cayman 60402
T1 sequence (P09917 1-674): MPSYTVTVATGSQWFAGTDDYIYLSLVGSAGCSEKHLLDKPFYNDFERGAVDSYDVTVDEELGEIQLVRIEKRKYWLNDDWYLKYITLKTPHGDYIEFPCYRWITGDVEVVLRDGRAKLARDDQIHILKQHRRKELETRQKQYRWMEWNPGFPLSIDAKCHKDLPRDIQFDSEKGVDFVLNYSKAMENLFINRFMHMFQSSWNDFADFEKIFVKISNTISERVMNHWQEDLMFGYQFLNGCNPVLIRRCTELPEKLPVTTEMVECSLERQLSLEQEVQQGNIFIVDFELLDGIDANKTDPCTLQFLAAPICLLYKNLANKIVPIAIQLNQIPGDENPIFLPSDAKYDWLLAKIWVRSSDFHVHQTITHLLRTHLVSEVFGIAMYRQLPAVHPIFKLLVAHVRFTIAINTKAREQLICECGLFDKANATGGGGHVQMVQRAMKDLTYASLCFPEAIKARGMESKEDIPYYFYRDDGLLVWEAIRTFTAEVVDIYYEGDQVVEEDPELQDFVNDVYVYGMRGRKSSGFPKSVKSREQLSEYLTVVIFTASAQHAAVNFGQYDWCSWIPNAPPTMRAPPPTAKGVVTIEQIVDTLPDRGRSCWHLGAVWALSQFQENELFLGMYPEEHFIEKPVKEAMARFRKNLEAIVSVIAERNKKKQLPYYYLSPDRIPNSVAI
Description: This procedure was used for measuring the enzymatic activity of human recombinant 5-lipoxygenase using a […] method based on the ferric oxidation of xylenol orange.
Human recombinant 5-lipoxygenase (Cayman Cat # 60402) was used in this assay. The test compound and/or vehicle was added to 0.5U 5-lipoxygenase in 50 mM Tris-HCl buffer, pH 7.4. The reaction was initiated by addition of 70 μM arachidonic acid in Tris-HCl buffer, pH 7.4, and terminated after a 10 minute incubation at room temperature by addition of FOX reagent (25 mM sulphuric acid, 100 μM xylenol orange, 100 μM iron (II) sulphate, methanol:water 9:1). The yellow color of acidified xylenol orange was converted to a blue color by the lipid hydroperoxide-mediated oxidation of Fe^2+ ions and the interaction of the resulting Fe^3+ ions with the dye. The complex was allowed to form during a 1 hour incubation at room temperature with shaking. Absorbance of the Fe^3+ complex was then measured at […] using a spectrophotometer.
Negative controls contained enzyme during the incubation step but substrate was not added until after the FOX reagent.
Compounds were screened at 5 concentrations in triplicate starting at 10 μM

[3] = system: LTB4 production in heparinized whole blood; test: Inhibition of LTB4 production in blood; assay type: cell-based, rat or mouse; conditions: 20 μM A23187, read-out: EC50, protection against LTB4
Description: The blood was collected in heparinized tubes or syringes to prevent clotting. Heparin was at 20 USP U/ml. About 3-5 ml of blood was collected per rat and about 0.5-0.75 ml per mouse. This assay required 200 μl/data point, therefore a 96 well plate requires 20 ml.
The Calcium ionophore A23187 was prepared as a 10 mM stock solution in DMSO and the test agent is prepared in DMSO so that <1 μl DMSO will be added to the well
200 μl blood per well were added in a round bottom 96 well clear plastic 96 well plate followed by the test agent. After 10 minutes incubation at 37° C., 5 μl of Calcium ionophore A23187 for a final concentration of 20 μM were added and mixed, and further incubated for 30 min. After 1000×g centrifugation to pellet blood cells, 20 μl plasma was carefully removed.
20 μl plasma were added to 80 μl methanol to precipitate protein and mixed. This was further incubated 10 min. at room temperature and centrifuged at 1000×g to pellet protein.
Following manufacturer's instructions, the commercially available EIA kit was used to subsequently measure the LTB4 production in the samples. The LTB4 levels produced in the vehicle control sample were then compared to those in which the test compound had been added. From this a percent inhibition of LTB4 production by each concentration of test compound was calculated and the IC50 for inhibition of LTB4 production for each test compound was determined.

[4] = system: LTB4 release from MPRO cell line; test: LTB4-cell assay; assay type: cell-based; conditions: Mus musculus; differentiated MPRO cells, 1 μM A23187, 1 hour; read-out: EC50, inhibition of LTB4
Description: This procedure was used for measuring the release of the leukotriene LTB4 from a neutrophil cell line using a competitive ELISA technique.
A mouse promyelocytic cell line (MPRO) was used in this assay. These cells are committed immature neutrophils that can be differentiated into mature neutrophils by treatment with 10 μM all-trans retinoic acid for 72 hours
Following 72 hours of differentiation, cells were stimulated with 1 μM of a calcium ionophore (A23187) in the presence or absence of test compound or vehicle for 1 hour at 37° C. After this time, supernatant was removed from the cells and the LTB4 levels were determined following manufacturer's instructions, using a Leukotriene B4 EIA kit from Cayman (Cat # 520111)
The negative controls were media samples from differentiated but unstimulated cells.
The compounds were screened at 5 concentrations in quadruplicate starting at 10 μM

Row | SMILES | EC50 [1] [nM] | other results
1 | CC(C)=CCc1c(O)c2c(c3c1CCC(C)(C)O3)C1CCC2CC1 [2,2-Dimethyl-5-(3-methyl-but-2-enyl)-3,4,7,8,9,10-hexahydro-7,10-ethano-2H-benzo[h]chromen-6-ol] | ≤ 1000 | 
2 | CC(C)=CCc1c(O)c2c(c3c1C=CC(C)(C)O3)C1CCC2C1 (stereo not drawn) [2,2-Dimethyl-5-(3-methyl-but-2-enyl)-7,8,9,10-tetrahydro-7,10-methano-2H-benzo[h]chromen-6-ol] | ≤ 1000 | 
3 | Cc1c(O)c2c(c3c1CCC(C)(CCCCl)O3)C1CCC2CC1 (stereo not drawn) [2-(3-Chloro-propyl)-2,5-dimethyl-3,4,7,8,9,10-hexahydro-7,10-ethano-2H-benzo[h]chromen-6-ol] | ≤ 1000 | IC50 [2]: ≤ 5000 nM; EC50 [3]: ≤ 10000 nM
4 | CC1(CCCSc2nc3ccccc3s2)CCc2cc(O)c3c(c2O1)C1CCC3CC1 (stereo not drawn) [2-[3-(Benzothiazol-2-ylsulfanyl)-propyl]-2-methyl-3,4,7,8,9,10-hexahydro-7,10-ethano-2H-benzo[h]chromen-6-ol] | ≤ 1000 | 
5 | CC1(CCC(=O)OCc2ccccc2)CCc2cc(O)c3c(c2O1)C1CCC3CC1 (stereo not drawn) [3-(6-Hydroxy-2-methyl-3,4,7,8,9,10-hexahydro-7,10-ethano-2H-benzo[h]chromen-2-yl)-propionic acid benzyl ester] |  | IC50 [2]: ≤ 5000 nM
6 | COC(=O)CCC1(C)CCc2cc(O)c3c(c2O1)C1CCC3CC1 (stereo not drawn) [3-(6-Hydroxy-2-methyl-3,4,7,8,9,10-hexahydro-7,10-ethano-2H-benzo[h]chromen-2-yl)-propionic acid methyl ester] |  | IC50 [2]: ≤ 5000 nM
7 | COC(=O)CCC1(C)CCc2cc(O)c3c(c2O1)C1CCCC3CC1 (stereo not drawn) [3-(6-Hydroxy-2-methyl-3,4,7,8,9,10-hexahydro-7,10-propano-2H-benzo[h]chromen-2-yl)-propionic Acid Methyl Ester] | ≤ 1000 | IC50 [2]: ≤ 5000 nM
8 | CCCC1=NN(C)C(=O)/C1=C\c1c(O)c2c(c3c1CCC(C)(C)O3)C1CCC2C1 (stereo not drawn) [4-(6-Hydroxy-2,2-dimethyl-3,4,7,8,9,10-hexahydro-7,10-methano-2H-benzo[h]chromen-5-ylmethylene)-2-methyl-5-propyl-2,4-dihydro-pyrazol-3-one] | ≤ 1000 | EC50 [3]: ≤ 10000 nM
9 | CC1=NN(c2ccc(C(=O)O)cc2)C(=O)C1=Cc1c(O)c2c(c3c1CCC(C)(C)O3)C1CCC2C1 (stereo not drawn) [4-[4-(6-Hydroxy-2,2-dimethyl-3,4,7,8,9,10-hexahydro-7,10-methano-2H-benzo[h]chromen-5-ylmethylene)-3-methyl-5-oxo-4,5-dihydro-pyrazol-1-yl]-benzoic acid] | ≤ 1000 | 
10 | CC1(C)CCc2c(CC=C3CCCCC3)c(O)c3c(c2O1)C1CCC3CC1 [5-(2-Cyclohexylidene-ethyl)-2,2-dimethyl-3,4,7,8,9,10-hexahydro-7,10-ethano-2H-benzo[h]chromen-6-ol] | ≤ 1000 | 
11 | CC1(C)CCc2c(C=C3C(=O)Oc4ccc(O)cc43)c(O)c3c(c2O1)C1CCC3C1 (stereo not drawn) [5-Hydroxy-3-(6-hydroxy-2,2-dimethyl-3,4,7,8,9,10-hexahydro-7,10-methano-2H-benzo[h]chromen-5-ylmethylene)-3H-benzofuran-2-one] | ≤ 1000 | 
12 | CC1(C)CCc2c(CO)c(O)c3c(c2O1)C1CCC3C1 (stereo not drawn) [5-Hydroxymethyl-2,2-dimethyl-3,4,7,8,9,10-hexahydro-7,10-methano-2H-benzo[h]chromen-6-ol] | ≤ 1000 | 
13 | COC12CCC(CC1)c1c(O)cc3c(c12)OC(C)(C)CC3 [10-Methoxy-2,2-dimethyl-3,4,7,8,9,10-hexahydro-7,10-ethano-2H-benzo[h]chromen-6-ol] |  | IC50 [2]: ≤ 5000 nM
14 | CC(=O)Oc1c(CC=C(C)C)c2c(c3c1C1CCC3C1)OC(C)(C)C=C2 (stereo not drawn) [Acetic acid 2,2-dimethyl-5-(3-methyl-but-2-enyl)-7,8,9,10-tetrahydro-7,10-methano-2H-benzo[h]chromen-6-yl ester] | ≤ 1000 | 
15 | CC(=O)Oc1c(CCC(C)C)c2c(c3c1C1CCC3C1)OC(C)(C)CC2 (stereo not drawn) [Acetic acid 2,2-dimethyl-5-(3-methyl-butyl)-3,4,7,8,9,10-hexahydro-7,10-methano-2H-benzo[h]chromen-6-yl ester] | ≤ 1000 | 
16 | CN(C)CC(=O)Oc1cc2c(c3c1C1CCC3CC1)OC(C)(C)CC2 [Dimethylamino-acetic acid 2,2-dimethyl-3,4,7,8,9,10-hexahydro-7,10-ethano-2H-benzo[h]chromen-6-yl ester] |  | EC50 [4]: ≤ 5000 nM
17 | COP(=O)(CCCC1(C)CCc2cc(O)c3c(c2O1)C1CCC3C1)OC (stereo not drawn) [[3-(6-Hydroxy-2-methyl-3,4,7,8,9,10-hexahydro-7,10-methano-2H-benzo[h]chromen-2-yl)-propyl]-phosphonic Acid Dimethyl Ester] |  | EC50 [3]: ≤ 10000 nM

— patent US7875607B2, “7,8-bicycloakyl-chroman derivatives” (Ampere Life Sciences, Inc., priority 2004, dated 2011)
